# From patent US9637490B2, “Antifungal 5,6-dihydro-4-[(difluoroethyl)phenyl]-4H-pyrrolo[1,2-α][1,4]benzodiazepine and 4-(difluoroethyl)phenyl-6H-pyrrolo[1,2-α][1,4]benzodiazepine derivatives” (Janssen Pharmaceutica NV, priority 2010, dated 2017)
# Legend:
# [1] = tested on: Sporothrix schenkii B62482; assay: Antifungal activity in vitro (resazurin susceptibility screen), Inf. A; assay type: cell-based; settings: 27 °C, 4 days, resa time 24 hours; for pIC50 Inf. A: Sporothrix schenkii B62482; for IC50: Sporothrix, B62482, Sporothrix schenkii B62482
# Protocol: (§1) The standard susceptibility screen was performed in 96-well plates (U-bottom, Greiner Bio-One). Serial dilutions (2-fold or 4-fold) of 20 mM compound stock solutions were made in 100% DMSO, followed by an intermediate dilution step in water. These serial dilutions (10 μl) were then spotted onto test-plates that could be stored in the dark at 4° C. for a maximum period of 2 weeks. An adequate broad dose-range was included with 64 μM as the highest in-test concentration. The culture medium RPMI-1640 was supplemented with L-glutamine, 2% glucose and buffered with 3-(N-morpholino)-propanesulfonic acid (MOPS) at pH 7.0±0.1. The different fungal species/isolates (Table 3a) were cryopreserved and 1/1000 diluted in medium just prior to use. A standard inoculum of 200 μl containing 10^3 colony-forming unit (cfu) was then added to each well. A positive control (100% growth=fungal culture without antifungal) and a negative control (0% growth=RPMI-MOPS medium) were included on each plate. Optimal incubation time and temperature were dependent on the fungal species and vary from 24 h for yeasts (37° C.) to one week or more for dermatophytes (27° C.). Inhibition of fungal growth was measured after adding 10 μl of 0.005% (w/v) resazurin (Sigma Aldrich) to each well, based on the principle that living cells convert the non-fluorescent blue resazurin into the pink and fluorescent resorufin, allowing fluorimetric reading (λhd ex 550 nm and μem 590 nm) after an additional incubation period (‘resa’ time mentioned in Table 3a). [table]
# Microsporum canis B68128 = assay: Antifungal activity in vitro (resazurin susceptibility screen), Inf. B; assay type: cell-based; settings: 27 °C, 9 days, resa time 24 hours; for pIC50 Inf. B: Microsporum canis B68128; for IC50: Microsporum canis, B68128, Microsporum canis B68128
# Protocol: as §1
# [2] = tested on: Trichophyton rubrum B68183; assay: Antifungal activity in vitro (resazurin susceptibility screen), Inf. C; assay type: cell-based; settings: 27 °C, 7 days, resa time 24 hours; for pIC50 Inf. C: Trichophyton rubrum B68183; for IC50: Trichophyton rubrum, B68183, Trichophyton rubrum B68183
# Protocol: as §1
# [3] = tested on: Candida parapsilosis B66126; assay: Antifungal activity in vitro (resazurin susceptibility screen), Inf. D; assay type: cell-based; settings: 37 °C, 24 hours, resa time 4 hours; for pIC50 Inf. D: Candida parapsilosis B66126; for IC50: Lodderomyces parapsilosis, B66126, Candida parapsilosis B66126
# Protocol: as §1
# [4] = tested on: Aspergillus fumigatus B42928; assay: Antifungal activity in vitro (resazurin susceptibility screen), Inf. E; assay type: cell-based; settings: 27 °C, 48 hours, resa time 17 hours; for pIC50 Inf. E: Aspergillus fumigatus B42928; for IC50: Aspergillus fumigatus, B42928, Aspergillus fumigatus B42928
# Protocol: as §1
# [5] = tested on: Cryptococcus neoformans B66663; assay: Antifungal activity in vitro (resazurin susceptibility screen), Inf. F; assay type: cell-based; settings: 37 °C, 24 hours, resa time 4 hours; for pIC50 Inf. F: Cryptococcus neoformans B66663; for IC50: Cryptococcus neoformans, B66663, Cryptococcus neoformans B66663
# Protocol: as §1
# [6] = tested on: Trichophyton mentagrophytes B70554; assay: Antifungal activity in vitro (resazurin susceptibility screen), Inf. G; assay type: cell-based; settings: 27 °C, 7 days, resa time 24 hours; for pIC50 Inf. G: Trichophyton mentagrophytes B70554; for IC50: Trichophyton mentagrophytes, B70554, Trichophyton mentagrophytes B70554
# Protocol: as §1
# [7] = tested on: Scedosporium apiospermum IHEM3817; assay: Antifungal activity in vitro (resazurin susceptibility screen), Inf. H; assay type: cell-based; settings: 37 °C, 48 hours, resa time 17 hours; for IC50: Scedosporium apiospermum, IHEM3817, Scedosporium apiospermum IHEM3817
# Protocol: as §1
# Rhizopus oryzae IHEM5223 = assay: Antifungal activity in vitro (resazurin susceptibility screen), Inf. J; assay type: cell-based; settings: 37 °C, 24 hours, resa time 6 hours; for IC50: Rhizopus arrhizus
# Protocol: as §1
# [8] = tested on: Rhizomucor miehei IHEM13391; assay: Antifungal activity in vitro (resazurin susceptibility screen), Inf. K; assay type: cell-based; settings: 37 °C, 48 hours, resa time 17 hours; for IC50: Rhizomucor miehei, IHEM13391, Rhizomucor miehei IHEM13391
# Protocol: as §1
# [9] = tested on: Mucor circinelloides IHEM21105; assay: Antifungal activity in vitro (resazurin susceptibility screen), Inf. L; assay type: cell-based; settings: 27 °C, 48 hours, resa time 17 hours
# Protocol: as §1
# [10] = tested on: Scedosporium prolificans IHEM21157; assay: Antifungal activity in vitro (resazurin susceptibility screen), Inf. I; assay type: cell-based; settings: Lomentospora prolificans, 37 °C, 48 hours, resa time 17 hours
# Protocol: as §1
# [11] = tested on: Microsporum canis (strain B68128); assay: Test D.4.1: activity against M. canis in guinea-pigs after oral treatment for 7 consecutive days; assay type: in vivo; parameters: key to semi-quantitative lesion score (mean): lesion score 0–3.5 by severity and size of lesion; settings: oral 10 mg/kg once daily for 7 days
# Protocol: The animals used in the tests described below were female Guinea pigs (Duncan-Hartley, Charles River, 200 g). These animals were kept in groups of 2 or 3 in cages of 56×33×20 cm^3. Food pellets (Carfil Quality) and water were available ad libitum in addition to a small daily amount of hay. Standard husbandry conditions were adopted: room temperature: 22° C., humidity level: 60% and a day-night cycle of 12 h.
# For the preparation of inoculums, Microsporum canis (strain B68128) was grown on Sabouraud Dextrose Agar (SDA) plates for at least one week (7-10 days) before infection (27° C.). On the day of infection, spores were harvested by adding 4-5 ml sterile water on the plate and suspending the infectious material with a bend Pasteur pipette. From the recollected fluid, 10 μl was added to a KOVA counting chamber for determination of the number of spores in 1 square (average of several squares). If needed, additional dilutions (10× or 100×) were prepared. The average number of spores in one square×dilution×90.000=cfu/ml. An inoculum of 1×10^7 cfu/ml was prepared in a honey-water mixture (50%-50%).
# In the tests described below, semi-quantitative lesion scores were given based on different clinical parameters. Scores between 0 and 3.5 were assigned based on the severity and size of the lesion. The criteria are listed in detail in Table 6.
# The dorsum of the guinea pigs was shaved and further depilated for 3 minutes with Veet® creme before scarification with a steel brush. An inoculum of 10^6 cfu in 150 μl (75 mQ+75 μl honey) was applied to the wound using a micropipette with disposable tips. The animal was kept immobilized until the inoculum had completely dried. […]
# vehicle: methocel 0.5%, Tween 80® (polysorbate 80), demineralised water reference compound: itraconazole at 6.25 mg/ml test compounds: prepared at 25 mg/ml, subsequently further diluted
# Oral treatment (gavage 0.16 ml/100 g once daily) was started about 2 hours before infection and continued once daily for 7 consecutive days. The animals were weighed after 3 days of treatment to adjust for the dose.
# Developments of lesions were evaluated following the semi-quantitative lesion scoring system (see Table 6) on days 3, 5, 7, 10, 12, 14, 17 and 20. The results are show in Table 7 (“DPI” means days post infection). Reported values in Table 7 are mean values.
SMILES,pIC50 Inf. A [1],pIC50 Inf. B (Microsporum canis B68128),pIC50 Inf. C [2],pIC50 Inf. D [3],pIC50 Inf. E [4],pIC50 Inf. F [5],pIC50 Inf. G [6],IC50 [1] [µM],IC50 (Microsporum canis B68128) [µM],IC50 [2] [µM],IC50 [3] [µM],IC50 [4] [µM],IC50 [5] [µM],IC50 [6] [µM],also measured
"CC(F)(F)c1ccc(C2NCc3c(Cl)cccc3-n3cccc32)cc1.Cl (stereo not shown) [Compound 1, 7-chloro-4-[4-(1,1-difluoroethyl)phenyl]-5,6-dihydro-4H-pyrrolo[1,2-a][1,4]-benzodiazepine.HCl]",4.68,6.45,6.91,5.70,6.72,5.30,6.89,–,–,–,–,–,–,–,pIC50 Inf. H ([7]; Scedosporium apiospermum IHEM3817): <4.19; pIC50 Inf. J (Rhizopus oryzae IHEM5223): <4.19; pIC50 Inf. K ([8]; Rhizomucor miehei IHEM13391): <4.19; IC50 [9]: > 64.6 µM
"CC(F)(F)c1cc(C2=NCc3c(Cl)cccc3-n3cccc32)ccc1F [Compound 21, 7-chloro-4-[3-(1,1-difluoroethyl)-4-fluorophenyl]-6H-pyrrolo[1,2-a][1,4]benzodiazepine]",–,–,–,–,–,–,–,3.72,0.479,0.195,2.45,0.126,1.58,0.692,IC50 [7]: 0.0891 µM; IC50 [10]: 0.0501 µM; IC50 (Rhizopus oryzae IHEM5223): > 64.6 µM; IC50 [8]: 6.61 µM; IC50 [9]: > 64.6 µM
"CC(F)(F)c1ccc(C2=NCc3c(Cl)cc(F)cc3-n3cccc32)cc1 [Compound 27, 7-chloro-4-[4-(1,1-difluoroethyl)phenyl]-9-fluoro-6H-pyrrolo[1,2-a][1,4]benzodiazepine]",–,–,–,–,–,–,–,2.45,0.513,0.288,1.82,0.501,1.02,1.51,IC50 [7]: 0.437 µM; IC50 [10]: 0.1 µM; IC50 (Rhizopus oryzae IHEM5223): > 64.6 µM; IC50 [8]: 8.32 µM; IC50 [9]: > 64.6 µM
"CCC(C)n1ncn(-c2ccc(N3CCN(c4ccc(OCC5COC(Cn6cncn6)(c6ccc(Cl)cc6Cl)O5)cc4)CC3)cc2)c1=O (stereo not shown) [Itraconazole, reference compound]",–,–,–,–,–,–,–,–,–,–,–,–,–,–,semi-quantitative lesion score (mean) ([11]; 3 DPI): 0; semi-quantitative lesion score (mean) ([11]; 5 DPI): 0; semi-quantitative lesion score (mean) ([11]; 7 DPI): 0; semi-quantitative lesion score (mean) ([11]; 10 DPI): 0; semi-quantitative lesion score (mean) ([11]; 12 DPI): 0; semi-quantitative lesion score (mean) ([11]; 14 DPI): 0; semi-quantitative lesion score (mean) ([11]; 17 DPI): 0; semi-quantitative lesion score (mean) ([11]; 20 DPI): 0
"CC(F)(F)c1ccc(C2NCc3c(Cl)cc(Cl)cc3-n3cccc32)cc1.Cl (stereo not shown) [Compound 13, 7,9-dichloro-4-[4-(1,1-difluoroethyl)phenyl]-5,6-dihydro-4H-pyrrolo[1,2-a][1,4]-benzodiazepine.HCl]",<4.19,4.23,5.70,<4.19,4.81,<4.19,5.14,–,–,–,–,–,–,–,–
"CC(F)(F)c1ccc(C2NCc3c(ccc(Cl)c3Cl)-n3cccc32)cc1.Cl (stereo not shown) [Compound 7, 7,8-dichloro-4-[4-(1,1-difluoroethyl)phenyl]-5,6-dihydro-4H-pyrrolo[1,2-a][1,4]-benzodiazepine.HCl]",<4.19,5.40,5.40,<4.19,<4.19,<4.19,<4.19,–,–,–,–,–,–,–,–
"CC(F)(F)c1ccc(C2=NCc3c(ccc(Cl)c3Cl)-n3cccc32)cc1 [Compound 10, 7,8-dichloro-4-[4-(1,1-difluoroethyl)phenyl]-6H-pyrrolo[1,2-a][1,4]benzodiazepine]",–,–,–,–,–,–,–,> 64.6,> 64.6,> 64.6,> 64.6,> 64.6,> 64.6,> 64.6,–
"CC(F)(F)c1cc(C2=NCc3cccc(Cl)c3-n3cccc32)ccc1F [Compound 35, 10-chloro-4-[3-(1,1-difluoroethyl)-4-fluorophenyl]-6H-pyrrolo[1,2-a][1,4]-benzodiazepine]",–,–,–,–,–,–,–,4.27,0.525,0.302,14.8,1.45,0.525,1.58,–
"CC(F)(F)c1ccc(C2NCc3c(Cl)ccc(Cl)c3-n3cccc32)cc1.Cl (stereo not shown) [Compound 11, 7,10-dichloro-4-[4-(1,1-difluoroethyl)phenyl]-5,6-dihydro-4H-pyrrolo[1,2-a][1,4]-benzodiazepine.HCl]",<4.19,<4.19,4.86,<4.19,<4.19,<4.19,<4.19,–,–,–,–,–,–,–,–
"CC(F)(F)c1ccc(C2NCc3cc(Cl)cc(Cl)c3-n3cccc32)cc1.Cl (stereo not shown) [Compound 5, 8,10-dichloro-4-[4-(1,1-difluoroethyl)phenyl]-5,6-dihydro-4H-pyrrolo[1,2-a][1,4]-benzodiazepine.HCl]",<4.19,<4.19,4.22,<4.19,<4.19,4.46,<4.19,–,–,–,–,–,–,–,–
"CC(F)(F)c1cc(C2=NCc3ccc(Cl)cc3-n3cccc32)ccc1F [Compound 34, 9-chloro-4-[3-(1,1-difluoroethyl)-4-fluorophenyl]-6H-pyrrolo[1,2-a][1,4]benzodiazepine]",–,–,–,–,–,–,–,7.94,8.13,7.94,2.95,7.94,5.75,8.13,–
"CC(F)(F)c1ccc([C@H]2NCc3c(Cl)cccc3-n3cccc32)cc1 (single isomer, unassigned) [Compound 3]",–,–,–,–,–,–,–,–,–,–,–,–,–,–,IC50 [10]: 0.708 µM; IC50 (Rhizopus oryzae IHEM5223): > 64.6 µM
